Test results as given in patent US9296741B2, “Bromodomain inhibitors” (priority 2012, dated 2016).

Tests used:
[1] = target: human BRD4 first bromodomain (BDI_K57-E168) (Homo sapiens (Human), UniProt O60885); experiment: TR-FRET bromodomain binding assay, BRD4 first bromodomain
[2] = Mouse liver microsome stability assay; assay type: in vitro ADME; details: male, CD1, mouse, microsomes, pH 7.4
[3] = Rat liver microsome stability assay; assay type: in vitro ADME; details: rat liver microsomes (male Sprague-Dawley), 0.5 μM test compound, 0.25 mg/mL microsomal protein, pH 7.4, 37° C.; read-out: Stability in rat liver microsomes (t1/2 in minutes)
[4] = target: human BRD4 second bromodomain (BDII_E352-M457) (Homo sapiens (Human), UniProt O60885); experiment: TR-FRET bromodomain binding assay, BRD4 second bromodomain
[5] = Human liver microsome stability assay; assay type: in vitro ADME; details: both sexes, human, microsomes, pH 7.4
[6] = test system: breast cancer cell line MX-1; experiment: MX-1 cell line proliferation assay; assay type: cell-based, human; details: Homo sapiens, MX1, 72 h; MX-1 cells, 3-day proliferation, Cell Titer Glo; read-out: Cellular proliferation: EC50

SMILES | Ki [1] | half-life at 0.5 μM [2] | half-life at 0.5 μM [3] | Ki [4] | half-life at 0.5 μM [5] | EC50 [6]
CCS(=O)(=O)c1ccc(Oc2ccc(F)cc2F)c(-c2cn(C)c(=O)c3[nH]ncc23)c1 [Example 322, 4-[2-(2,4-difluorophenoxy)-5-(ethylsulfonyl)phenyl]-6-methyl-1,6-dihydro-7H-pyrazolo[3,4-c]pyridin-7-one] | 181 nM | > 120 min | 57 min | 45.6 nM | > 120 min | 66.8 nM
COC(=O)c1cc2c(-c3ccccc3Oc3ccccc3)cn(C)c(=O)c2[nH]1 [Example 67, methyl 6-methyl-7-oxo-4-(2-phenoxyphenyl)-6,7-dihydro-1H-pyrrolo[2,3-c]pyridine-2-carboxylate] | 56.1 nM | 6 min | 5 min | 93.8 nM | 6 min | 341 nM
CN(C)C(=O)c1cc2c(-c3cc(S(C)(=O)=O)ccc3Oc3ccc(F)cc3F)cn(C)c(=O)c2[nH]1 [Example 269, 4-[2-(2,4-difluorophenoxy)-5-(methylsulfonyl)phenyl]-N,N,6-trimethyl-7-oxo-6,7-dihydro-1 H-pyrrolo[2,3-c]pyridine-2-carboxamide] | 12.4 nM | 58 min | 83 min | 56.9 nM | 79 min | 329 nM
Cn1cc(-c2cc(S(C)(=O)=O)ccc2Oc2ccc(F)cc2F)c2cc(CNC3CCOC3)[nH]c2c1=O (stereo not drawn) [Example 284, 4-[2-(2,4-difluorophenoxy)-5-(methylsulfonyl)phenyl]-6-methyl-2-[(tetrahydrofuran-3-ylamino)methyl]-1,6-dihydro-7H-pyrrolo[2,3-c]pyridin-7-one] | 18.3 nM | > 120 min | 108 min | 130 nM | 12 min | 131 nM
Cn1cc(-c2cc(S(C)(=O)=O)ccc2OCC2CCOC2)c2cc[nH]c2c1=O (stereo not drawn) [Example 217, 6-methyl-4-[5-(methylsulfonyl)-2-(tetrahydrofuran-3-ylmethoxy)phenyl]-1,6-dihydro-7H-pyrrolo[2,3-c]pyridin-7-one] | 3.3 nM | 68 min | 101 min | 8.1 nM | 70 min | 34.2 nM
Cn1cc(-c2cc(S(C)(=O)=O)ccc2Oc2ccccc2CCO)c2cc[nH]c2c1=O [Example 309, 4-{2-[2-(2-hydroxyethyl)phenoxy]-5-(methylsulfonyl)phenyl}-6-methyl-1,6-dihydro-7H-pyrrolo[2,3-c]pyridin-7-one] | 30.6 nM | > 120 min | > 120 min | 16.9 nM | > 120 min | 85.9 nM
CCS(=O)(=O)N1CCN(C(=O)c2ccc(Oc3ccc(F)cc3F)c(-c3cn(C)c(=O)c4[nH]ccc34)c2)CC1 [Example 137, 4-[2-(2,4-difluorophenoxy)-5-{[4-(ethylsulfonyl)piperazin-1-yl]carbonyl}phenyl]-6-methyl-1,6-dihydro-7H-pyrrolo[2,3-c]pyridin-7-one] | 68.7 nM | 10 min | 31 min | 8.9 nM | 38 min | 303 nM
CC(COC(C)(C)C)Oc1ccc(S(C)(=O)=O)cc1-c1cn(C)c(=O)c2[nH]ccc12 (stereo not drawn) [Example 229, 4-{2-[(1-tert-butoxypropan-2-yl)oxy]-5-(methylsulfonyl)phenyl}-6-methyl-1,6-dihydro-7H-pyrrolo[2,3-c]pyridin-7-one] | 34.3 nM | 9 min | 33 min | 61.3 nM | 25 min | 288 nM
CCNC(=O)c1ccc(Oc2ccccc2)c(-c2cn(C)c(=O)c3[nH]ccc23)c1 [Example 13, N-ethyl-3-(6-methyl-7-oxo-6,7-dihydro-1H-pyrrolo[2,3-c]pyridin-4-yl)-4-phenoxybenzamide] | 3.7 nM | 22 min | 2 min | 3.4 nM | 66 min | 128 nM
Cn1cc(-c2cc(C(=O)NCc3ccncc3)ccc2Oc2ccc(F)cc2F)c2cc[nH]c2c1=O [Example 121, 4-(2,4-difluorophenoxy)-3-(6-methyl-7-oxo-6,7-dihydro-1H-pyrrolo[2,3-c]pyridin-4-yl)-N-(pyridin-4-ylmethyl)benzamide] | 15.5 nM | 24 min | 25 min | 33.4 nM | 21 min | 251 nM
Cn1cc(-c2cc(NS(C)(=O)=O)ccc2OC2CCOC2)c2cc[nH]c2c1=O (stereo not drawn) [Example 31, N-[3-(6-methyl-7-oxo-6,7-dihydro-1H-pyrrolo[2,3-c]pyridin-4-yl)-4-(tetrahydrofuran-3-yloxy)phenyl]methanesulfonamide] | 1.8 nM | 19 min | > 120 min | 13.4 nM | 56 min | 39.8 nM
CCS(=O)(=O)N(CCC(F)(F)F)c1ccc(Oc2ccc(F)cc2F)c(-c2cn(C)c(=O)c3[nH]ccc23)c1 [Example 346, N-[4-(2,4-difluorophenoxy)-3-(6-methyl-7-oxo-6,7-dihydro-1H-pyrrolo[2,3-c]pyridin-4-yl)phenyl]-N-(3,3,3-trifluoropropyl)ethanesulfonamide] | 96.2 nM | 2 min | 5 min | 16 nM | 4 min | 213 nM
Cn1cc(-c2cc(C(=O)NC3CCCC3)ccc2Oc2ccccc2)c2cc[nH]c2c1=O [Example 15, N-cyclopentyl-3-(6-methyl-7-oxo-6,7-dihydro-1H-pyrrolo[2,3-c]pyridin-4-yl)-4-phenoxybenzamide] | 4.2 nM | 7 min | 4 min | 7.5 nM | 10 min | 140 nM
CN(C)C(=O)Cc1ccc(OCc2ccccc2)c(-c2cn(C)c(=O)c3[nH]ccc23)c1 [Example 47, 2-[4-(benzyloxy)-3-(6-methyl-7-oxo-6,7-dihydro-1H-pyrrolo[2,3-c]pyridin-4-yl)phenyl]-N,N-dimethylacetamide] | 235 nM | 5 min | 3 min | 205 nM | 8 min | 1100 nM
Cn1cc(-c2cc(NS(C)(=O)=O)ccc2Oc2ccccc2)c2cc(C(N)=O)[nH]c2c1=O [Example 73, 6-methyl-4-{5-[(methylsulfonyl)amino]-2-phenoxyphenyl}-7-oxo-6,7-dihydro-1H-pyrrolo[2,3-c]pyridine-2-carboxamide] | 0.98 nM | 31 min | 2 min | 0.5 nM | 36 min | 20.7 nM
Cn1cc(-c2cc(C(=O)NCC3CCCO3)ccc2Oc2ccccc2)c2cc[nH]c2c1=O (stereo not drawn) [Example 14, 3-(6-methyl-7-oxo-6,7-dihydro-1H-pyrrolo[2,3-c]pyridin-4-yl)-4-phenoxy-N-(tetrahydrofuran-2-ylmethyl)benzamide] | 5.5 nM | 8 min | 6 min | 12.3 nM | 37 min | 170 nM
Cn1cc(-c2cc(S(=O)(=O)N3CCc4ccccc43)ccc2OCC2CC2)c2cc[nH]c2c1=O [Example 305, 4-[2-(cyclopropylmethoxy)-5-(2,3-dihydro-1H-indol-1-ylsulfonyl)phenyl]-6-methyl-1,6-dihydro-7H-pyrrolo[2,3-c]pyridin-7-one] | 327 nM | 2 min | 2 min | 25.7 nM | 1 min | 110 nM
Cn1cc(-c2cc(NS(C)(=O)=O)cnc2Oc2ccccc2)c2cc[nH]c2c1=O [Example 23, N-[5-(6-methyl-7-oxo-6,7-dihydro-1H-pyrrolo[2,3-c]pyridin-4-yl)-6-phenoxypyridin-3-yl]methanesulfonamide] | 1.2 nM | > 120 min | 11 min | 0.75 nM | 64 min | 45.9 nM
Cn1cc(-c2cc(C(=O)NC3CCS(=O)(=O)C3)ccc2Oc2ccccc2)c2cc[nH]c2c1=O (stereo not drawn) [Example 18, N-(1,1-dioxidotetrahydrothiophen-3-yl)-3-(6-methyl-7-oxo-6,7-dihydro-1H-pyrrolo[2,3-c]pyridin-4-yl)-4-phenoxybenzamide] | 10.2 nM | 15 min | 11 min | 10.3 nM | 31 min | 209 nM
Cn1nc(-c2ccccc2Oc2ccccc2)c2cc[nH]c2c1=O [Example 82, 6-methyl-4-(2-phenoxyphenyl)-1,6-dihydro-7H-pyrrolo[2,3-d]pyridazin-7-one] | 519 nM | 2 min | 2 min | 183 nM | 19 min | 767 nM
Cn1cc(-c2cc(S(C)(=O)=O)ccc2Oc2ccc(F)cc2F)c2cc(C(=O)Nc3nccs3)[nH]c2c1=O [Example 257, 4-[2-(2,4-difluorophenoxy)-5-(methylsulfonyl)phenyl]-6-methyl-7-oxo-N-(1,3-thiazol-2-yl)-6,7-dihydro-1H-pyrrolo[2,3-c]pyridine-2-carboxamide] | 58.8 nM | 20.3 min | 56 min | 3 nM | 18 min | 360 nM
